# Test results taken from patent US9273058B2 (BRISTOL-MYERS SQUIBB COMPANY, priority 2013, dated 2016).
# Read-outs that look alike come from different tables or passages of the source.
# How the values were obtained:
# pancreatic tumor cell [1] = settings: in vitro; Brockschmidt et al., Gut 2008; cited from earlier work
# pancreatic tumor cell [2] = settings: in vivo; Brockschmidt et al., Gut 2008; cited from earlier work
# CK1ε = CK1ε (Homo sapiens, UniProt P49674); assay: CK1ε kinase assay (Caliper LabChip electrophoretic separation of fluoresceinated peptide substrate and product); type: biochemical; settings: 200 pM CK1ε, 50 μM ATP, 1.5 μM peptide, 22 hours at room temperature
# Procedure, shortened: (§1)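 Eleven-concentration compound series in kinase reactions run for 22 hours at room temperature. Terminated with EDTA, with product conversion read by electrophoretic separation. Non-linear regression gave IC50.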
# CK1δ = CK1δ (Homo sapiens, UniProt P48730); assay: CK1δ kinase assay (Caliper LabChip electrophoretic separation of fluoresceinated peptide substrate and product); type: biochemical; settings: 200 pM CK1δ, 50 μM ATP, 1.5 μM peptide, 22 hours at room temperature
# Procedure, shortened: as §1
# Sequence of CK1ε (P49674 whole entry): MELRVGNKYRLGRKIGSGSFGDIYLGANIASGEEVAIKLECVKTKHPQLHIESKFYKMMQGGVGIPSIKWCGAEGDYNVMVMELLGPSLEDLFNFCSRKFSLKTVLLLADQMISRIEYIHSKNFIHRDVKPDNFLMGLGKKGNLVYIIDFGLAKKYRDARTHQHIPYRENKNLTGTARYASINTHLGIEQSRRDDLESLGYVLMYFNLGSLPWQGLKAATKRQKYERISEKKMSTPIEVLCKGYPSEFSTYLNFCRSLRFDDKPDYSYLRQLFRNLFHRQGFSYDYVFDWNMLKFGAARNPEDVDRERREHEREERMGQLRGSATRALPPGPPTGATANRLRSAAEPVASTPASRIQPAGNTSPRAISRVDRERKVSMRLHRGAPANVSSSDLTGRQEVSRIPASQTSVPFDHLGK
# Sequence of CK1δ (P48730 whole entry): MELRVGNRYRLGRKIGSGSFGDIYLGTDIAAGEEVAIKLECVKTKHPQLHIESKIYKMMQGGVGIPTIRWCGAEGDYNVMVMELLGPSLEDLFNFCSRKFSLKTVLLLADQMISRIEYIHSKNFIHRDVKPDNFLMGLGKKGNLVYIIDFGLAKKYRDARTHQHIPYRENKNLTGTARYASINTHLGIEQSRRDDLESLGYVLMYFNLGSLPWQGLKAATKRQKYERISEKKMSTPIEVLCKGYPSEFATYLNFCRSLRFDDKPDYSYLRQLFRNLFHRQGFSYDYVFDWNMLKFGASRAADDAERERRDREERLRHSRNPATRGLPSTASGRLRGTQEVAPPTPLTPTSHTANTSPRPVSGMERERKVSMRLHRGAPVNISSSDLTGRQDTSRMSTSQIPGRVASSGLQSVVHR
Structure (SMILES),pancreatic tumor cell growth (pancreatic tumor cell [1]),pancreatic tumor cell growth (pancreatic tumor cell [2]),IC50 (CK1ε; read-out: CK1ε IC50 range),IC50 (CK1δ; read-out: CK1δ IC50 range),IC50 (CK1ε; read-out: CK1ε),IC50 (CK1δ; read-out: CK1δ)
COc1cc(OC)c(C=C2C(O)=Nc3ccccc32)c(OC)c1 [IC261],reduces pancreatic tumor cell growth,reduces pancreatic tumor cell growth,,,,
"NC(=O)c1c(-c2cccc(Cl)c2)nn2c1CN(C(=O)N[C@H]1C[C@@H](c3ccc(F)cc3)C1)CC2 [Compound 277, 2-(3-Chlorophenyl)-N^5-((1s,3s)-3-(4-fluorophenyl)cyclobutyl)-6,7-dihydropyrazolo[1,5-a] pyrazine-3,5(4H)-dicarboxamide]",,,0.01 to 10 nM,0.01 to 10 nM,,
"NC(=O)c1c(-c2cccc(Cl)c2)nn2c1CN(C(=O)NC1CC(COC(F)F)C1)CC2 (single isomer, unassigned) [Compound 244, 2-(3-Chlorophenyl)-N^5-(3-((difluoromethoxy)methyl)cyclobutyl)-6,7-dihydropyrazolo[1,5-a]pyrazine-3,5(4H)-dicarboxamide]",,,0.01 to 10 nM,0.01 to 10 nM,,
"NC(=O)c1c(-c2cccc(Cl)c2)nn2c1CN(C(=O)NC13C4C5C1C1C3C4C51F)CC2 (stereo not shown) [Compound A88, N^5-(4-Fluorocuban-1-yl)-2-(3-chlorophenyl)-6,7-dihydropyrazolo[1,5-a]pyrazine-3,5(4H)-dicarboxamide]",,,0.01 to 10 nM,0.01 to 10 nM,,
"CC(C)C1CN(C(=O)NC(C)(C)C)Cc2c(C(N)=O)c(-c3ccc(F)c(Cl)c3)nn21 (single isomer, unassigned) [Compound A120, N^5-(tert-Butyl)-2-(3-chloro-4-fluorophenyl)-7-isopropyl-6,7-dihydropyrazolo[1,5-a]pyrazine-3,5(4H)-dicarboxamide]",,,0.01 to 10 nM,0.01 to 10 nM,,
"NC(=O)c1c(-c2ccc(F)c(Cl)c2)nn2c1CN(C(=O)NC13CCC(F)(CC1)C3)CC2 [Compound A137, 2-(3-Chloro-4-fluorophenyl)-N^5-(4-fluorobicyclo[2.2.1]heptan-1-yl)-6,7-dihydropyrazolo[1,5-a]pyrazine-3,5(4H)-dicarboxamide]",,,0.01 to 10 nM,0.01 to 10 nM,,
"NC(=O)c1c(-c2ccc(Cl)c(Cl)c2)nn2c1CN(C(=O)N[C@H]1C[C@H](F)C1)CC2 [Compound 202, 2-(3,4-Dichlorophenyl)-N^5-((1r,3r)-3-fluorocyclobutyl)-6,7-dihydropyrazolo[1,5-a] pyrazine-3,5(4H)-dicarboxamide]",,,0.01 to 10 nM,0.01 to 10 nM,,
"CC(C)(C)NC(=O)N1CCn2nc(-c3ccc(F)c(F)c3)c(C(N)=O)c2C1 [Compound 106, N^5-(tert-Butyl)-2-(3,4-difluorophenyl)-6,7-dihydropyrazolo[1,5-a] pyrazine-3,5(4H)-dicarboxamide]",,,10 to 100 nM,0.01 to 10 nM,29.3 nM,8.7 nM
"CC(C)(C)NC(=O)N1CCn2nc(-c3cnc(N4CCCC4)nc3)c(C(N)=O)c2C1 [Compound 146, N^5-(tert-Butyl)-2-(2-(pyrrolidin-1-yl)pyrimidin-5-yl)-6,7-dihydropyrazolo[1,5-a]pyrazine-3,5(4H)-dicarboxamide]",,,100 to 2000 nM,100 to 2000 nM,,
"CC(C)(C)NC(=O)N1Cc2c(C(N)=O)c(-c3cccc(Cl)c3)nn2C2(CC2)C1 [Compound A129, N^5-(tert-Butyl)-2′-(3-chlorophenyl)-4′H-spiro[cyclopropane-1,7′-pyrazolo[1,5-a]pyrazine]-3′,5′(6′H)-dicarboxamide]",,,0.01 to 10 nM,0.01 to 10 nM,,
"NC(=O)c1c(-c2ccc(Cl)c(Cl)c2)nn2c1CN(C(=O)NC1(COC(F)F)CCC1)CC2 [Compound 224, 2-(3,4-Dichlorophenyl)-N^5-(1-((difluoromethoxy)methyl)cyclobutyl)-6,7-dihydropyrazolo[1,5-a] pyrazine-3,5(4H)-dicarboxamide]",,,0.01 to 10 nM,0.01 to 10 nM,,
"CO[C@H]1C[C@H](NC(=O)N2CCn3nc(-c4cccc(Cl)c4)c(C(N)=O)c3C2)C1 [Compound 178, 2-(3-Chlorophenyl)-N^5-((1r,3r)-3-methoxycyclobutyl)-6,7-dihydropyrazolo [1,5-a]pyrazine-3,5(4H)-dicarboxamide]",,,0.01 to 10 nM,0.01 to 10 nM,,
"CC1(NC(=O)N2CCn3nc(-c4cccc(Cl)c4)c(C(N)=O)c3C2)CC1 [Compound A42, 2-(3-Chlorophenyl)-N^5-(1-methylcyclopropyl)-6,7-dihydropyrazolo[1,5-a]pyrazine-3,5(4H)-dicarboxamide]",,,0.01 to 10 nM,0.01 to 10 nM,,
"NC(=O)c1c(-c2cccc(Cl)c2)nn2c1CN(C(=O)NC1CC(F)(F)C1)CC2CF (single isomer, unassigned) [Compound A112, 2-(3-Chlorophenyl)-N^5-(3,3-difluorocyclobutyl)-7-(fluoromethyl)-6,7-dihydropyrazolo[1,5-a]pyrazine-3,5(4H)-dicarboxamide]",,,0.01 to 10 nM,0.01 to 10 nM,,
CC(C)(C)NC(=O)N1CCn2nc(-c3ccc(F)cc3)c(C(N)=O)c2C1 [Compound 1],,,10 to 100 nM,10 to 100 nM,90.3 nM,27.8 nM
"CC(C)(NC(=O)N1CCn2nc(-c3cccc(Cl)c3)c(C(N)=O)c2C1)C1CC(F)(F)C1 [Compound 227, 2-(3-Chlorophenyl)-N^5-(2-(3,3-difluorocyclobutyl)propan-2-yl)-6,7-dihydropyrazolo[1,5-a] pyrazine-3,5(4H)-dicarboxamide]",,,0.01 to 10 nM,0.01 to 10 nM,,
"CC(C)(C)NC(=O)N1CCn2nc(-c3ccc(F)nc3F)c(C(N)=O)c2C1 [Compound 125, N^5-(tert-Butyl)-2-(2,6-difluoropyridin-3-yl)-6,7-dihydropyrazolo[1,5-a] pyrazine-3,5(4H)-dicarboxamide]",,,100 to 2000 nM,100 to 2000 nM,,
"NC(=O)c1c(-c2ccc(F)c(Cl)c2)nn2c1CN(C(=O)NC1CC3(C1)CC3(F)F)CC2 (single isomer, unassigned) [Compound 321, 2-(3-Chloro-4-fluorophenyl)-N^5-(1,1-difluorospiro[2.3]hexan-5-yl)-6,7-dihydropyrazolo[1,5-a]pyrazine-3,5(4H)-dicarboxamide]",,,0.01 to 10 nM,0.01 to 10 nM,,
"NC(=O)c1c(-c2ccc(F)c(Cl)c2)nn2c1CN(C(=O)N[C@H]1C[C@H](F)C1)CC2 [Compound 189, 2-(3-Chloro-4-fluorophenyl)-N^5-((1r,3r)-3-fluorocyclobutyl)-6,7-dihydropyrazolo[1,5-a] pyrazine-3,5(4H)-dicarboxamide]",,,0.01 to 10 nM,0.01 to 10 nM,,
"NC(=O)c1c(-c2ccc(Cl)c(Cl)c2)nn2c1CN(C(=O)NC1(c3ccc(F)cc3)CC(F)(F)C1)CC2 [Compound 310, 2-(3,4-Dichlorophenyl)-N^5-(3,3-difluoro-1-(4-fluorophenyl)cyclobutyl)-6,7-dihydropyrazolo[1,5-a] pyrazine-3,5(4H)-dicarboxamide]",,,0.01 to 10 nM,0.01 to 10 nM,,
"CC(C)(C)NC(=O)N1CCn2nc(-c3ccc4scnc4c3)c(C(N)=O)c2C1 [Compound 149, 2-(Benzo[d]thiazol-5-yl)-N^5-(tert-butyl)-6,7-dihydropyrazolo[1,5-a] pyrazine-3,5(4H)-dicarboxamide]",,,100 to 2000 nM,10 to 100 nM,,
"NC(=O)c1c(-c2cccc(F)c2)nn2c1CN(C(=O)Nc1ccc(Cl)cc1Cl)CC2 [Compound 43, N^5-(2,4-Dichlorophenyl)-2-(3-fluorophenyl)-6,7-dihydropyrazolo[1,5-a]pyrazine-3,5(4H)-dicarboxamide]",,,10 to 100 nM,10 to 100 nM,,
"CN(C)C(=O)C(C)(C)NC(=O)N1CCn2nc(-c3ccc(F)c(Cl)c3)c(C(N)=O)c2C1 [Compound 218, 2-(3-Chloro-4-fluorophenyl)-N^5-(1-(dimethylamino)-2-methyl-1-oxopropan-2-yl)-6,7-dihydropyrazolo[1,5-a] pyrazine-3,5(4H)-dicarboxamide]",,,10 to 100 nM,0.01 to 10 nM,,
"CC1(NC(=O)N2CCn3nc(-c4cccc(Cl)c4)c(C(N)=O)c3C2)CC2(CC2)C1 [Compound 318, 2-(3-Chlorophenyl)-N^5-(5-methylspiro[2.3]hexan-5-yl)-6,7-dihydropyrazolo[1,5-a]pyrazine-3,5(4H)-dicarboxamide]",,,0.01 to 10 nM,0.01 to 10 nM,,
"CC12CC3(C)CC(C)(C1)CC(NC(=O)N1CCn4nc(-c5ccc(F)c(Cl)c5)c(C(N)=O)c4C1)(C2)C3 [Compound A65, 2-(3-Chloro-4-fluorophenyl)-N^5-((3s,5s,7s)-3,5,7-trimethyladamantan-1-yl)-6,7-dihydropyrazolo[1,5-a]pyrazine-3,5(4H)-dicarboxamide]",,,0.01 to 10 nM,0.01 to 10 nM,,
"NC(=O)c1c(-c2cccc(Cl)c2)nn2c1CN(C(=O)NC1(C(F)(F)F)CC1)CC2 [Compound A40, 2-(3-Chlorophenyl)-N^5-(1-(trifluoromethyl)cyclopropyl)-6,7-dihydropyrazolo[1,5-a]pyrazine-3,5(4H)-dicarboxamide]",,,0.01 to 10 nM,0.01 to 10 nM,,
"N#Cc1ccc(O[C@H]2C[C@H](NC(=O)N3CCn4nc(-c5cccc(Cl)c5)c(C(N)=O)c4C3)C2)cc1 [Compound 267, 2-(3-Chlorophenyl)-N^5-((1r,3r)-3-(4-cyanophenoxy)cyclobutyl)-6,7-dihydropyrazolo[1,5-a] pyrazine-3,5(4H)-dicarboxamide]",,,0.01 to 10 nM,0.01 to 10 nM,,
